Reference: US20160047805A1, “IN SITU-DILUTION METHOD AND SYSTEM FOR MEASURING MOLECULAR AND CHEMICAL INTERACTIONS” (FLIR SYSTEMS, INC., priority 2010, published 2016)

What was measured:
[1] = test system: immobilized carbonic anhydrase; assay: SPR kinetic analysis, in situ dilution injection method, thermodynamic analysis; settings: three temperatures (10, 25, 35 °C), 1:1 binding model
Method: (§1) In Example 1, the kinetic values for the interaction between carboxybeneze sulfonamide and immobilized carbonic anhydrase were determined using a standard multiple injection method and the in situ dilution method described herein. In the classical approach sequential injection method (FIGS. 4A-4D) a series of individual concentrations were prepared as a serial doubling dilution set starting from a neat concentration of 40 mM giving a total of nine different concentrations. These concentrations were made up in the running buffer (i.e HEPES buffer saline, pH 7.4). […] of each sample was injected at […] and allowed dissociate for 300 seconds. Each concentration was repeated in duplicate and the entire analysis was repeated at four different analysis temperatures (10 C, 20 C, 30 C, 40 C—FIGS. 4A-D, respectively). […] In this case a total of three interaction curves is recorded at three different temperatures representing a minimal data set that can be recorded at least an order faster than the conventional approach even normalized for the number replicates and the number of temperatures used. A single neat sample (40 mM) was injected using the in-situ-dilution injection and a serial doubling dilution of analyte was performed on-the-fly yielding a dose response curve. Dissociation was monitored for 200 seconds. This was repeated at three different temperatures. A blank injection was also included at each temperature for double referencing.
(§2) In both data sets the samples were injected over a protein coated and a non-coated surface to enable double referencing of the binding response curves. The resulting referenced binding response curves were then fitted with a kinetic 1:1 binding interaction model and the fitted curves are shown in red. The kinetic values were then analyzed thermodynamically to determined thermodynamic constants for the interaction and these are shown in Tables 1 and 2 below.

[2] = test system: immobilized carbonic anhydrase; assay: SPR kinetic analysis, traditional (stepped/sequential multiple) injection method, thermodynamic analysis; settings: HEPES buffer saline pH 7.4, 10, 20, 30, 40 C, 1:1 binding model
Method: as §1, §2

`NS(=O)(=O)c1ccc(C(=O)O)cc1` [carboxybeneze sulfonamide] was tested, and the “ΔG‡ Association” value ([1]; association) was 11.1 kcal/mol, the “ΔH‡ Association” value ([1]; association) was 4.1 kcal/mol and the “ΔS‡ Association” value ([1]; association) was −24 cal/mol K. For the same molecule, the “ΔG‡ Dissociation” value ([1]; dissociation) was 18.8 kcal/mol, the “ΔH‡ Dissociation” value ([1]; dissociation) was 13.1 kcal/mol and the “ΔS‡ Dissociation” value ([1]; dissociation) was −20 cal/mol K. The “ΔG‡ Association” value ([2]; association) was 11.60 kcal/mol, the “ΔH‡ Association” value ([2]; association) was 3.96 kcal/mol and the “ΔS‡ Association” value ([2]; association) was −26.1 cal/mol K. The “ΔG‡ Dissociation” value ([2]; dissociation) was 19.32 kcal/mol, the “ΔH‡ Dissociation” value ([2]; dissociation) was 14.63 kcal/mol and the “ΔS‡ Dissociation” value ([2]; dissociation) was −16.0 cal/mol K.
